These results are taken from PubChem BioAssay (NCI).

Several values for one entry are separate records, joined by “and”; a condition that tells them apart may be missing. Identical values can stand only once.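 Each compound was tested at five concentrations against cells in 96-well plates for 48 hours. GI50 is the concentration that inhibits growth by half. TGI marks complete inhibition of growth.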

Common to all, as to test: NCI tumour cell line growth inhibition, 48 h
The subject of assay [1] is ACHN renal.
Assay [2] deals with HOP-92 NSCLC.
Assay [3] relates to LOX IMVI melanoma.
In assay [4] the test system is MOLT-4 leukemia.
The subject of assay [5] is RXF 393 renal.
In assay [6] the test system is SK-MEL-28 melanoma.
Assay [7] has as its system SNB-19 CNS.
In assay [8] the test system is UO-31 renal.
For assay [9], the system named is NCI/ADR-RES ovarian.

As to `COc1cc(Nc2cnc3cc(C(F)(F)F)ccc3n2)cc(OC)c1OC`, the TGI in assay [1], in [2], in [3], in [4], in [5] and in [6] was above 100 µM in each case. In addition, the TGI in assay [7] and in assay [8] was above 100 µM in each case.
Take `CCCc1c2c([nH]c(=O)c1C)C(=O)c1[nH]c(=O)c(C)c(CCC)c1C2=O`: the TGI in assay [1] was 47.6 µM; in [2] it was 93.8 µM; in assay [3], 55.3 µM; in assay [4] it was 57 µM; in assay [5], 69.2 µM; in assay [6] it was above 100 µM. The TGI in assay [7] was 55 µM; in assay [8], above 100 µM.
On to `CCCCCCCCCCCCCS(=O)(=O)O`, for which the TGI in [1], in [2], in [3], in [5], in [6] and in assay [7] was above 100 µM throughout. For the same compound, in [8], the TGI was above 100 µM.
Consider `O=C(O)c1ccc(NC(=O)C2C(=O)C(=O)N(c3ccc(C(=O)O)cc3)C2=O)cc1` (stereo not given), for which the TGI in assay [1], in assay [2], in assay [3], in assay [4], in assay [5] and in assay [6] was above 100 µM each time. The TGI in [7] and in assay [8] was above 100 µM each time.
`CCN(CC)CCCN(c1cc(OC)cc2nccnc12)S(=O)(=O)c1ccc(C)cc1`: the TGI in assay [1], in [2], in assay [3], in assay [4], in assay [5] and in assay [6] was above 100 µM in each case. Besides, the TGI in assay [7] and in assay [8] was above 100 µM throughout.
Take `O=C1C2C(C(=O)N1O)N(Cc1ccccc1)C(=O)N2Cc1ccccc1` (stereo not given): the TGI in assay [1], in assay [2], in assay [3], in assay [4], in assay [5] and in assay [6] was above 100 µM in each case. The TGI in [7] and in assay [8] was above 100 µM throughout.
For the compound `CC[C@@H]1C[C@@H]2CN3CCc4c([nH]c5ccc(OC)cc45)C(COC(=O)c4ccc(OC)c(OC)c4)(C2)C13`, the TGI in [1] was above 100 µM; in assay [2], 32.2 µM; in assay [3], 27.6 µM; in assay [4] it was 62.3 µM; in [5], 62.6 µM; in [6], above 100 µM. Further, the TGI was above 100 µM in assay [7] and 98.8 µM in [8].
In the case of `C/C(=N\NC(=S)N1CCCCCC1)c1nccnc1C`, the TGI in assay [1] was 3.24 µM; in assay [3], above 100 µM; in assay [5], 7.06 µM; in assay [6], above 100 µM.
Take `COc1nc2c(OC)cccc2c(OC)c1C=O`: the TGI in assay [1], in [3], in assay [4], in assay [5], in [6] and in assay [7] was above 100 µM in each case. Further, the TGI in [8] was above 100 µM.
For `O=C(Nc1ccc(Cl)c(C(F)(F)F)c1)C(=O)C(C(=O)/C=C/c1ccccc1)C1OC(=O)c2ccccc21` (stereo not given), the TGI in assay [1], in assay [2], in assay [3], in assay [4], in [5] and in assay [7] was above 100 µM throughout. The compound also gave a TGI in [8] above 100 µM.
As to `CC(C)C(C(=O)O)N(CC1(O)OCC(O)C(O)C1O)N=O` (stereo not given), the TGI in assay [1], in [2], in assay [3], in assay [4], in assay [5] and in assay [6] was above 100 µM in each case. The same compound came in with a TGI in assay [8] above 100 µM.
Take `COc1cccc(N2C(=O)c3c(c4[nH]c5ccccc5c4c4ccc(C(C)(C)C)cc34)C2=O)c1`: the TGI in assay [1], in assay [2], in [3], in assay [4], in assay [5] and in [6] was above 100 µM each time. The TGI in [7] and in assay [8] was above 100 µM throughout.
In the case of `CN/N=C(/Cc1occc(=O)c1O)C(=O)Nc1ccc(C)c(C)c1`, the TGI in assay [1], in assay [2], in assay [3], in [4], in [6] and in assay [7] was above 100 µM in each case. Besides, in assay [8], the TGI was above 100 µM.
As to `Cc1ccc(S(=O)(=O)N/N=C(\CCN2CCCC2)CC(c2ccccc2)c2c(O)c3ccccc3oc2=O)cc1` (stereo not given), the TGI in [1], in assay [2], in [3], in assay [5], in assay [7] and in assay [8] was above 100 µM each time.
Consider `C/C(=N\N=C(N)N)C(CN(CC(C)C)CC(C)C)C(=O)Nc1ccc(C)cc1C` (stereo not given), for which the TGI in assay [1], in assay [2], in assay [3], in assay [4], in assay [5] and in assay [6] was above 100 µM throughout. Moreover, the TGI in [7] and in assay [8] was above 100 µM each time.
Regarding `CC(C)(C)NNC(=O)/C(=C/c1ccc(Oc2ccc(Cl)c(Cl)c2)cc1)NC(=O)c1ccccc1`, the TGI in assay [1] is above 100 µM; in assay [2], above 100 µM; in [3], 40.1 µM; in assay [4], above 100 µM; in [5], above 100 µM; in assay [6], above 100 µM. The TGI in [7] and in [8] was above 100 µM throughout.
Consider `CC(=O)N(C)OC(=O)CC(=O)c1ccccc1`, for which the TGI in [1], in [2], in assay [3], in [4], in assay [5] and in assay [6] was above 100 µM each time. The TGI in [7] and in [8] was above 100 µM throughout.
Regarding `O=C1NC(=O)C(C(=O)C(=O)Nc2ccc(Br)cc2)C(=O)N1`, the TGI in assay [1], in [2], in [3], in assay [4], in assay [5] and in assay [6] was above 100 µM throughout. In addition, the TGI in assay [7] and in assay [8] was above 100 µM each time.
On to `CC1=CC=NN2C(=O)[C@H](C)C2C1` (stereo not given in full), for which the TGI in assay [1], in [2], in assay [3], in assay [4], in [5] and in assay [6] was above 100 µM in each case. The TGI in assay [7] and in assay [8] was above 100 µM in each case.
With `Cn1ncc(=S)[nH]c1=S`, the TGI in [1], in assay [2], in [3], in [4], in [5] and in assay [6] was above 100 µM throughout. Further, the TGI in assay [7] and in assay [8] was above 100 µM throughout.
Turning to `CC(Cn1c2c3ccccc3ccc2c2oc(=O)c3ccccc3c21)N(C)C` (stereo not given), the TGI in assay [1], in [2], in [3], in [4], in assay [6] and in assay [7] was above 100 µM each time. The TGI in assay [8] is above 100 µM.
`COC(=O)c1c[nH]cc1CCc1c[nH]cc1C(=O)OC`: the TGI in assay [1], in [2], in [3], in [4], in [5] and in assay [6] was above 100 µM throughout. The TGI in [7] was above 100 µM.
With `Oc1ccc(C(c2ccccc2)(c2ccccc2)c2ccccc2)cc1`, the GI50 in [1] was 21.9 µM; in assay [2], 17.8 µM; in [3] it was 24.4 µM; in assay [4] it was 17.8 µM; in assay [9], 15 µM; in assay [5], 10.4 µM. Also, the figures for the GI50 in assay [7] and in assay [8] were 16.8 µM and 11.8 µM, respectively. Moreover, the TGI in assay [1] is 41.4 µM; in assay [2] it was 34.1 µM; in assay [3] it was above 100 µM; in assay [4], 36.6 µM; in assay [9], 28.6 µM; in [5], 25 µM. Moreover, the TGI was 32.2 µM in [7] and 26.9 µM in assay [8].
In the case of `O=C(Cc1nc2ccccc2s1)C(=O)Nc1ccc(Cl)cc1`, the TGI in assay [1], in assay [2], in assay [3], in [4], in assay [6] and in assay [7] was above 100 µM in each case. The TGI in [8] is above 100 µM.
For the compound `COc1ccc(OCC(=O)O)c2c1CCC(C(C)C)C2=O` (stereo not given), the TGI in assay [1], in [2], in assay [3], in assay [4], in assay [6] and in [7] was above 100 µM throughout. This compound also had a TGI in assay [8] above 100 µM.
On to `CCOC(=N)CC(=O)Nc1ccc(Cl)cc1`, for which the TGI in assay [1], in assay [3], in assay [4], in assay [5], in assay [6] and in assay [7] was above 100 µM in each case. In assay [8], this compound displayed a TGI above 100 µM.
As for `CN(C)/[N+]([O-])=N/Oc1cc(Nc2cccc(C(=O)O)c2)c([N+](=O)[O-])cc1[N+](=O)[O-]`, the GI50 in assay [1] was above 100 µM; in [3] it was 38.5 µM; in assay [4], 61.4 µM; in [9] it was above 100 µM; in assay [5] it was above 100 µM; in assay [6] it was above 100 µM. The GI50 in assay [7] is 53.6 µM; in assay [8] it was above 100 µM. Moreover, the TGI in assay [1], in [3], in [4], in [9], in assay [5] and in assay [6] was above 100 µM in each case. Besides, the TGI in [7] and in assay [8] was above 100 µM each time.
On to `O=C(CCN1CCN(c2cccc(Cl)c2)CC1)N1CCc2c([nH]c3ccccc23)C1c1cccnc1` (stereo not given), for which the GI50 is 6.34 µM in assay [1]; 12.3 µM in assay [2]; 6.5 µM in [3]; 4.65 µM in [4]; 6.31 µM in assay [5]; 4.7 µM in assay [8]. Also, the TGI in assay [1] was 21.6 µM; in assay [2] it was 9.52 µM and 35.7 µM; in [3], 20.5 µM; in assay [4], 26.6 µM; in assay [5], 21 µM; in [6] it was 26.9 µM. Besides, the figures for the TGI in assay [7] and in [8] were 26.9 µM and 16.2 µM, respectively.
Turning to `O=C(O)c1ccc(S(=O)(=O)c2ccccc2)c([N+](=O)[O-])c1`, the TGI in assay [1], in assay [2], in assay [3], in assay [4], in [5] and in assay [6] was above 100 µM in each case. The TGI in [7] and in assay [8] was above 100 µM in each case.
`COC(=O)C1(C)C=C(Nc2ccccc2)C(=O)N1c1ccccc1` (stereo not given): the TGI in [1], in [2], in assay [3], in [4], in assay [5] and in assay [6] was above 100 µM throughout. In addition, the TGI in [7] and in [8] was above 100 µM throughout.
In the case of `COc1ccc2[nH]cc(CCNC(C)=O)c2c1`, the TGI in [1], in assay [2], in assay [3], in assay [4], in assay [5] and in [6] was above 100 µM throughout. The TGI in assay [7] and in [8] was above 100 µM throughout.
As to `C/C(CN1C(=O)c2ccccc2C1=O)=N\NS(=O)(=O)c1cccc([N+](=O)[O-])c1`, the TGI in [1], in [4], in [5], in assay [6], in assay [7] and in assay [8] was above 100 µM in each case.
